# Results taken from US6825230B2, “Spiro and dispiro 1,2,4-trixolane antimalarials” (Medicines for Malaria Venture MMV, priority 2002, dated 2004).
# Where two headings read alike, the source gives them in different places.
# Tests used:
# [1] = test system: chloroquine-resistant K1 strain of P. falciparum; test: In vitro antimalarial semiautomated microdilution assay ([3H]-hypoxanthine incorporation), K1 strain; format: cell-based, Plasmodium falciparum; conditions: Plasmodium falciparum
# Experimental: (§1) Various OZ compounds were tested by the semiautomated microdilution assay against intraerythrocytic forms of Plasmodium falciparum derived from asynchronous stock cultures.
# (§2) Fifty percent inhibitory concentration (IC50) were estimated by Logit regression analysis.
# [2] = test system: ANKA strain of P. berghei; test: Single dose STI in vivo screen in infected mice; design: species or system Plasmodium berghei; conditions: for Survival (days) 10 mg/kg po: single 10 mg/kg po in 3% ethanol and 7% Tween 80; for Survival (days) 10 mg/kg po / Survival (days) 10 mg/kg SSV po / Survival (days) 10 mg/kg sc: untreated 6-7 days; for Activity (%) 10 mg/kg po: single 10 mg/kg po in 3% ethanol and 7% Tween 80 on day 1 post-infection; for Activity (%) 10 mg/kg po / Activity (%) 10 mg/kg SSV po / Activity (%) 10 mg/kg sc: percent reduction in parasitemia on day 3; for Survival (days) 10 mg/kg SSV po: single 10 mg/kg po in SSV; for Activity (%) 10 mg/kg SSV po: single 10 mg/kg po in standard suspending vehicle (SSV) on day 1 post-infection; for Survival (days) 10 mg/kg sc: single 10 mg/kg sc in 3% ethanol and 7% Tween 80; for Activity (%) 10 mg/kg sc: single 10 mg/kg sc in 3% ethanol and 7% Tween 80 on day 1 post-infection
# Experimental: In the single dose STI in vivo screen, Moro SPF or NMRI mice infected with the ANKA strain of P. berghei (groups of three mice) were treated on day one post-infection with trioxolanes dissolved or suspended in 3% ethanol and 7% Tween 80. […] SSV consists of 0.5% w/v CMC, 0.5% v/v benzyl alcohol, 0.4% v/v Tween 80, and 0.9% w/v sodium chloride in water. Antimalarial activity was measured by percent reduction in parasitemia on day three post-infection and survival times compared to an untreated control group. Survival to day 30 post-infection is considered to be a cure. […] Other factors influencing antimalarial activity include the stability of carbon radicals formed by β-scission subsequent to the initial electron transfer to the peroxide bond and the influence of steric effects remote from the peroxide bond on the interactions between carbon radicals and potential drug targets.
# Moro NMRI male mice (Fu Albino specific pathogen free) weighing 18±2 g were infected intravenously (i.v.) with 2×10^7 P. berghei ANKA strain-infected erythrocytes from donor mice on day 0 of the experiment. From donor mice with circa 30% parasitemia, heparinized blood was taken and diluted in physiological saline to 10^8 parasitized erythrocytes per ml. An aliquot (0.2 ml) of this suspension was injected i.v. into experimental and control groups of mice. […] Throughout the experiments, mice were kept in groups of three or five animals in Makrolon type II cages in an air-conditioned animal room at 22 to 23° C.
# They were administered per os (p.o.) in a total volume of 0.01 ml per gram of mouse. The activity of the compound was determined by a variety of methods outlined in subsequent sections. Survival time was also recorded, and survival to day 30 post-infection was considered to be a cure.
# [3] = test system: chloroquine-sensitive NF54 strain of P. falciparum; test: In vitro antimalarial semiautomated microdilution assay ([3H]-hypoxanthine incorporation), NF54 strain; format: cell-based, Plasmodium falciparum; conditions: Plasmodium falciparum
# Experimental: as §1, §2
# [4] = K1, 72 h, read-out: IC50 (ng/ml) K1, chloroquine-resistant K1 strain, 72 h incubation
# [5] = NF54, 72 h, read-out: IC50 (ng/ml) NF54, chloroquine-sensitive NF54 strain, 72 h incubation
# [6] = chloroquine-resistant K1 strain, 72 h incubation, read-out: IC50 (ng/ml) K1
# [7] = chloroquine-sensitive NF54 strain, 72 h incubation, read-out: IC50 (ng/ml) NF54
Structure (SMILES),"IC50 [1, 4] [ng/mL]",Survival (days) 10 mg/kg po [2],Activity (%) 10 mg/kg po [2],Survival (days) 10 mg/kg SSV po [2],Activity (%) 10 mg/kg SSV po [2],Survival (days) 10 mg/kg sc [2],Activity (%) 10 mg/kg sc [2],"IC50 [3, 5] [ng/mL]","IC50 [1, 6] [ng/mL]","IC50 [3, 7] [ng/mL]"
"O=[N+]([O-])c1ccc(C2(c3ccccc3)OOC3(O2)C2CC4CC(C2)CC3C4)cc1 (stereo not shown) [OZ95, Adamantane-2-spiro-3′-5′-(4′-nitrophenyl)-5′-phenyl-1′,2′,4′-trioxolane]",2.8,6.0/6.0/6.0 days,31%,6.0/6.0/6.0 days,0%,6.0/6.0/6.0 days,49%,1.3,,
"O=[N+]([O-])c1cc(C2(c3ccc(Cl)c([N+](=O)[O-])c3)OOC3(O2)C2CC4CC(C2)CC3C4)ccc1Cl (stereo not shown) [OZ96, Adamantane-2-spiro-3′-5′,5′-bis(4′-chloro-3′-nitrophenyl)-1′,2′,4′-trioxolane]",8.4,5.7 days,12%,5.7 days,14%,5.3 days,19%,> 10,,
O=C1c2ccccc2C(=O)N1CC1(c2ccccc2)CCC2(CC1)OOC1(O2)C2CC3CC(C2)CC1C3 (stereo not shown) [OZ97],2.2,6.7 days,59%,5.3 days,2%,7.0 days,66%,1.8,,
COC(=O)C1(c2ccccc2)CCC2(CC1)OOC1(O2)C2CC3CC(C2)CC1C3 (stereo not shown) [OZ98],2.3,6.3 days,72%,5.3 days,11%,7.3 days,77%,0.9,,
O=C(O)C1(c2ccccc2)CCC2(CC1)OOC1(O2)C2CC3CC(C2)CC1C3 (stereo not shown) [OZ99],77,6.3 days,30%,5.7 days,40%,6.3 days,36%,27,,
"CC(=O)Nc1ccc(S(=O)(=O)N2CCC3(CC2)OOC2(O3)C3CC4CC(C3)CC2C4)cc1 (stereo not shown) [OZ104, Adamantane-2-spiro-3′-8′-[[4-(acetylamino)phenyl]sulfonyl]-1′,2′,4′-trioxa-8′-azaspiro[4.5]decane]",1.4,6.3 days,56%,5.7 days,0%,12.0 days,99.98%,0.5,,
"COC(=O)c1ccc(C2(c3ccc(C(=O)OC)c(C(=O)OC)c3)OOC3(O2)C2CC4CC(C2)CC3C4)cc1C(=O)OC (stereo not shown) [OZ106, Adamantane-2-spiro-3′-5′,5′-bis[3′,4′-di(methoxycarbonyl)phenyl]-1′,2′,4′-trioxolane]",2.2,5.3 days,0/0/0%,5.0 days,0/0/0%,5.3 days,0/0/0%,1.7,,
"O=C(O)c1nccnc1C(=O)N1CCC2(CC1)OOC1(O2)C2CC3CC(C2)CC1C3 (stereo not shown) [OZ109, Adamantane-2-spiro-3′-8′-[(3′-carboxypyrazinyl)carbonyl]-1′,2′,4′-trioxa-8′-azaspiro[4.5]decane]",21,5.7 days,2%,5.7 days,0%,6.3 days,24%,24,,
"CCOC(=O)N1C2CCC1CC1(C2)OOC2(O1)C1CC3CC(C1)CC2C3 (stereo not shown) [OZ110, Adamantane-2-spiro-3′-1′,2′,4′-trioxolane-5′-spiro-3″-8″-ethoxycarbonyl-8″-azabicyclo[3.2.1]octane]",5.3,6.7 days,50%,5.3 days,0%,7.7 days,97.97%,2.1,,
"O=C(O)COCC(=O)N1CCC2(CC1)OOC1(O2)C2CC3CC(C2)CC1C3 (stereo not shown) [OZ112, Adamantane-2-spiro-3′-8′-[(carboxymethoxy)acetyl]-1′,2′,4′-trioxa-8′-azaspiro[4.5]decane]",> 10,5.7 days,6%,5.7 days,0%,6.3 days,36%,> 10,,
"O=S(=O)(c1cccc2cccnc12)N1CCC2(CC1)OOC1(O2)C2CC3CC(C2)CC1C3 (stereo not shown) [OZ114, Adamantane-2-spiro-3′-8′-(8′-quinolinesulfonyl)-1′,2′,4′-trioxa-8′-azaspiro[4.5]decane]",3.7,5.7 days,0%,6.0 days,0%,8.7 days,99.64%,2.2,,
"CCCCCCCCS(=O)(=O)N1CCC2(CC1)OOC1(O2)C2CC3CC(C2)CC1C3 (stereo not shown) [OZ115, Adamantane-2-spiro-3′-8′-(1′-octanesulfonyl)-1′,2′,4′-trioxa-8′-azaspiro[4.5]decane]",11,6.3 days,33%,5.7 days,0%,7.3 days,97%,6.9,,
O=C(NO)[C@H]1CC[C@]2(CC1)OOC1(O2)C2CC3CC(C2)CC1C3 (stereo partly shown) [OZ116],4.2,7.7 days,97%,8.3 days,96%,8.0 days,96%,3.3,,
NCC1(c2ccccc2)CCC2(CC1)OOC1(O2)C2CC3CC(C2)CC1C3 (stereo not shown) [OZ117],2.1,7.0 days,95%,7.7 days,96%,8.7 days,99.94%,1.2,,
CC(=O)OC[C@H]1CC[C@]2(CC1)OOC1(O2)C2CC3CC(C2)CC1C3 (stereo partly shown) [OZ118],,7.0 days,99.0%,8.0 days,98%,8.3 days,99.57%,,1,0.24
"CCOC(=O)C1(C(=O)OCC)COC2(CCC3(CC2)OOC2(O3)C3CC4CC(C3)CC2C4)OC1 (stereo not shown) [OZ120, Adamantane-2-spiro-3′-11′,11′-bis(ethoxycarbonyl)-1′,2′,4′,9′,13′-pentaoxadispiro[4.2.5.2]pentadecane]",,6.0 days,33%,5.7 days,8%,8.0 days,96%,,1.2,0.59
"OCC1(CO)COC2(CCC3(CC2)OOC2(O3)C3CC4CC(C3)CC2C4)OC1 (stereo not shown) [OZ121, Adamantane-2-spiro-3′-11′,11′-bis(hydroxymethyl)-1′,2′,4′,9′,13′-pentaoxadispiro[4.2.5.2]pentadecane]",0.96,7.3 days,91%,8.0 days,98%,7.3 days,99.61%,0.41,,
